ChEMBL document CHEMBL1201862, “PubChem BioAssay data set” (2004)
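Briefly, cells in 96-well plates were exposed to five compound concentrations for 48 h, and endpoints were estimated by linear interpolation. Abbreviation: GI50, concentration required for 50% inhibition of growth.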 Activity calls are given as the source filed them. Rule as the data show it: active = GI50 up to about 1.1 µM and inactive = higher.

Assays:
Assay in all cases: DTP human tumour cell line panel, 48 h
A498 = tested on: A498
SN12C = tested on: SN12C
MCF7 = tested on: MCF7
MOLT-4 = tested on: MOLT-4
NCI-H522 = tested on: NCI-H522
OVCAR-8 = tested on: OVCAR-8
KM12 = tested on: KM12
RPMI-8226 = tested on: RPMI-8226
OVCAR-4 = tested on: OVCAR-4
HL-60 = tested on: HL-60
NCI-H23 = tested on: NCI-H23
A549 = tested on: A549
BT-549 = tested on: BT-549
786-0 = tested on: 786-0
CCRF-CEM = tested on: CCRF-CEM
RXF 393 = tested on: RXF 393
MDA-MB-435 = tested on: MDA-MB-435
NCI/ADR-RES = tested on: NCI/ADR-RES
Hs-578T = tested on: Hs-578T
HCT-116 = tested on: HCT-116
NCI-H226 = tested on: NCI-H226
MDA-N = tested on: MDA-N
TK-10 = tested on: TK-10
OVCAR-3 = tested on: OVCAR-3
LOX IMVI = tested on: LOX IMVI
SF-295 = tested on: SF-295
IGROV-1 = tested on: IGROV-1
UO-31 = tested on: UO-31
ACHN = tested on: ACHN
HOP-92 = tested on: HOP-92
SNB-19 = tested on: SNB-19
SK-MEL-5 = tested on: SK-MEL-5
K562 = tested on: K562
OVCAR-5 = tested on: OVCAR-5
SK-MEL-28 = tested on: SK-MEL-28
HOP-62 = tested on: HOP-62
SF-268 = tested on: SF-268
DU-145 = tested on: DU-145
Malme-3M = tested on: Malme-3M
HCT-15 = tested on: HCT-15
SR = tested on: SR
SF-539 = tested on: SF-539
EKVX = tested on: EKVX
PC-3 = tested on: PC-3
HT-29 = tested on: HT-29
MDA-MB-231 = tested on: MDA-MB-231
SW-620 = tested on: SW-620
UACC-257 = tested on: UACC-257
HCC 2998 = tested on: HCC 2998
SNB-75 = tested on: SNB-75
NCI-H460 = tested on: NCI-H460
COLO 205 = tested on: COLO 205
U-251 = tested on: U-251
SK-MEL-2 = tested on: SK-MEL-2
CAKI-1 = tested on: CAKI-1
SK-OV-3 = tested on: SK-OV-3
UACC-62 = tested on: UACC-62
M14 = tested on: M14

CN(C)Cc1cc(/N=N/c2ccc(Cl)cc2)ccc1OC(=O)c1ccccc1
GI50 (A498): 15.5 µM (inactive)
GI50 (SN12C): 14.6 µM (inactive)
GI50 (MCF7): 13.2 µM (inactive)
GI50 (MOLT-4): 8.85 µM (inactive)
GI50 (NCI-H522): 12.2 µM (inactive)
GI50 (OVCAR-8): 17 µM (inactive)
GI50 (KM12): 15.7 µM (inactive)
GI50 (RPMI-8226): 15.6 µM (inactive)
GI50 (OVCAR-4): 14.1 µM (inactive)
GI50 (HL-60): 13.5 µM (inactive)
GI50 (NCI-H23): 17.8 µM (inactive)
GI50 (A549): 3.26 µM (inactive)
GI50 (BT-549): 22.1 µM (inactive)
GI50 (786-0): 14.7 µM (inactive)
GI50 (CCRF-CEM): 15.3 µM (inactive)
GI50 (RXF 393): 14.5 µM (inactive)
GI50 (MDA-MB-435): 15.7 µM (inactive)
GI50 (NCI/ADR-RES): 17.7 µM (inactive)
GI50 (Hs-578T): 16.4 µM (inactive)
GI50 (HCT-116): 16.4 µM (inactive)
GI50 (NCI-H226): 21.9 µM (inactive)
GI50 (MDA-N): 16.5 µM (inactive)
GI50 (TK-10): 15.3 µM (inactive)
GI50 (OVCAR-3): 15.7 µM (inactive)
GI50 (LOX IMVI): 12.4 µM (inactive)
GI50 (SF-295): 14.8 µM (inactive)
GI50 (IGROV-1): 13.2 µM (inactive)
GI50 (UO-31): 12.6 µM (inactive)
GI50 (ACHN): 14.5 µM (inactive)
GI50 (HOP-92): 2.9 µM (inactive)
GI50 (SNB-19): 15 µM (inactive)
GI50 (SK-MEL-5): 14.9 µM (inactive)
GI50 (K562): 14.4 µM (inactive)
GI50 (OVCAR-5): 16.8 µM (inactive)
GI50 (SK-MEL-28): 16.1 µM (inactive)
GI50 (HOP-62): 12.6 µM (inactive)
GI50 (SF-268): 19.2 µM (inactive)
GI50 (DU-145): 17 µM (inactive)
GI50 (Malme-3M): 16.7 µM (inactive)
GI50 (HCT-15): 12.9 µM
GI50 (SR): 12 µM (inactive)
GI50 (SF-539): 18.2 µM (inactive)
GI50 (EKVX): 12.1 µM (inactive)
GI50 (PC-3): 15.6 µM (inactive)
GI50 (HT-29): 14.4 µM (inactive)
GI50 (MDA-MB-231): 14.1 µM (inactive)
GI50 (SW-620): 16.9 µM (inactive)
GI50 (UACC-257): 19.2 µM (inactive)
GI50 (HCC 2998): 15.3 µM (inactive)
GI50 (SNB-75): 17 µM (inactive)
GI50 (NCI-H460): 15.3 µM (inactive)
GI50 (COLO 205): 18.4 µM (inactive)
GI50 (U-251): 15 µM (inactive)

N#Cc1nc(C2CCC(=O)O2)oc1N (stereo not drawn)
GI50 (A498): > 100 µM (inactive)
GI50 (SN12C): > 100 µM (inactive)
GI50 (MCF7): > 100 µM (inactive)
GI50 (MOLT-4): > 100 µM (inactive)
GI50 (OVCAR-8): > 100 µM (inactive)
GI50 (KM12): > 100 µM (inactive)
GI50 (RPMI-8226): > 100 µM (inactive)
GI50 (HL-60): > 100 µM (inactive)
GI50 (NCI-H23): > 100 µM (inactive)
GI50 (BT-549): > 100 µM (inactive)
GI50 (786-0): > 100 µM (inactive)
GI50 (CCRF-CEM): > 100 µM (inactive)
GI50 (RXF 393): > 100 µM (inactive)
GI50 (MDA-MB-435): > 100 µM (inactive)
GI50 (NCI/ADR-RES): > 100 µM (inactive)
GI50 (Hs-578T): > 100 µM (inactive)
GI50 (HCT-116): 83 µM (inactive)
GI50 (NCI-H226): > 100 µM (inactive)
GI50 (SK-MEL-2): > 100 µM (inactive)
GI50 (MDA-N): > 100 µM (inactive)
GI50 (TK-10): > 100 µM (inactive)
GI50 (OVCAR-3): > 100 µM (inactive)
GI50 (LOX IMVI): 72.9 µM (inactive)
GI50 (SF-295): > 100 µM (inactive)
GI50 (IGROV-1): > 100 µM (inactive)
GI50 (CAKI-1): > 100 µM (inactive)
GI50 (SK-OV-3): > 100 µM (inactive)
GI50 (UACC-62): > 100 µM (inactive)
GI50 (UO-31): > 100 µM (inactive)
GI50 (ACHN): > 100 µM (inactive)
GI50 (SNB-19): > 100 µM (inactive)
GI50 (SK-MEL-5): > 100 µM (inactive)
GI50 (K562): > 100 µM (inactive)
GI50 (OVCAR-5): > 100 µM (inactive)
GI50 (M14): > 100 µM (inactive)
GI50 (SK-MEL-28): > 100 µM (inactive)
GI50 (HOP-62): > 100 µM (inactive)
GI50 (SF-268): > 100 µM (inactive)
GI50 (DU-145): > 100 µM (inactive)
GI50 (Malme-3M): 13.4 µM (inactive)
GI50 (HCT-15): > 100 µM
GI50 (SR): > 100 µM (inactive)
GI50 (SF-539): > 100 µM (inactive)
GI50 (EKVX): > 100 µM (inactive)
GI50 (PC-3): > 100 µM (inactive)
GI50 (HT-29): > 100 µM (inactive)
GI50 (MDA-MB-231): > 100 µM (inactive)
GI50 (SW-620): > 100 µM (inactive)
GI50 (UACC-257): > 100 µM (inactive)
GI50 (SNB-75): 29 µM (inactive)
GI50 (NCI-H460): > 100 µM (inactive)
GI50 (COLO 205): > 100 µM (inactive)
GI50 (U-251): > 100 µM (inactive)

COc1ccc(C(=O)c2cc(OC)c(OC)c(OC)c2)cc1OC
GI50 (SN12C): 7.21 µM (inactive)
GI50 (MCF7): 2.24 µM (inactive)
GI50 (MOLT-4): 4.17 µM (inactive)
GI50 (NCI-H522): 3.63 µM (inactive)
GI50 (OVCAR-8): 5.38 µM (inactive)
GI50 (KM12): 0.815 µM (active)
GI50 (RPMI-8226): 7.53 µM (inactive)
GI50 (HL-60): 2.67 µM (inactive)
GI50 (NCI-H23): 10.2 µM (inactive)
GI50 (A549): 4.44 µM (inactive)
GI50 (BT-549): 5.41 µM (inactive)
GI50 (786-0): 4.98 µM (inactive)
GI50 (CCRF-CEM): 4.37 µM (inactive)
GI50 (RXF 393): 2.36 µM (inactive)
GI50 (MDA-MB-435): 0.436 µM (active)
GI50 (NCI/ADR-RES): 3.84 µM (inactive)
GI50 (Hs-578T): 2.7 µM (inactive)
GI50 (HCT-116): 4.94 µM (inactive)
GI50 (SK-MEL-2): 3.08 µM (inactive)
GI50 (MDA-N): 0.618 µM (active)
GI50 (TK-10): > 100 µM (inactive)
GI50 (OVCAR-3): 3.71 µM (inactive)
GI50 (LOX IMVI): 7.83 µM (inactive)
GI50 (SF-295): 1.82 µM (inactive)
GI50 (IGROV-1): 9.68 µM (inactive)
GI50 (UACC-62): 4.57 µM (inactive)
GI50 (UO-31): 3.71 µM (inactive)
GI50 (ACHN): 9.25 µM (inactive)
GI50 (SNB-19): 3.21 µM (inactive)
GI50 (SK-MEL-5): 4.44 µM (inactive)
GI50 (K562): 2.28 µM (inactive)
GI50 (OVCAR-5): 14.6 µM (inactive)
GI50 (M14): 8.83 µM (inactive)
GI50 (SK-MEL-28): 5.94 µM (inactive)
GI50 (HOP-62): 4.57 µM (inactive)
GI50 (SF-268): 7.8 µM (inactive)
GI50 (DU-145): 3.92 µM (inactive)
GI50 (Malme-3M): 5.93 µM (inactive)
GI50 (HCT-15): 1.58 µM
GI50 (SR): 3.28 µM (inactive)
GI50 (SF-539): 2.32 µM (inactive)
GI50 (EKVX): > 100 µM (inactive)
GI50 (PC-3): 3.86 µM (inactive)
GI50 (HT-29): 3.1 µM (inactive)
GI50 (MDA-MB-231): 6.17 µM (inactive)
GI50 (SW-620): 3.52 µM (inactive)
GI50 (UACC-257): 27.2 µM (inactive)
GI50 (HCC 2998): 2.81 µM (inactive)
GI50 (SNB-75): 4.04 µM (inactive)
GI50 (NCI-H460): 3.34 µM (inactive)
GI50 (COLO 205): 4.04 µM (inactive)
GI50 (U-251): 3.94 µM (inactive)
